In patent US20050048596A1, “Assay for detecting changes in mitochondrial membrane permeability and method of using same” (priority 2003, published 2005):

Assays:
MPT pore [1] = assay: Calcium-induced swelling of isolated liver mitochondria, light scattering at 540 nm; format: biochemical, rat; conditions: BA 20 μM; calcium 100 μM; no enzymes in medium; FIG. 6
Excerpt: FIG. 6 illustrates calcium-induced swelling of mitochondria isolated from whole liver. The swelling is detected by recording the light scattering of mitochondrial suspension at 540 nm. Experimental conditions are the same as described in FIG. 5, except no enzymes were present in the medium.
The opening of the MPT pore leads to osmotic swelling of mitochondria, which can be detected as decreased light scattering. […] However, a more significant and progressive decrease in light scattering starting at about 300 sec. following the initial calcium pulse occurred.
Male Wistar rats weighing about 300 g were used for isolation of rat liver mitochondria. For examination of calcium-induced release of NAD^+, 0.125 mg/ml of mitochondrial protein were used. The mitochondria were incubated in 2ml of the reaction buffer containing all compounds required for the assay.

MPT pore [2] = assay: Enzymatic assay (ADH/NADH oxidase/HRP/Amplex Red) of calcium-induced pyridine nucleotide release from isolated liver mitochondria, Resorufin fluorescence; format: biochemical, rat; conditions: BA 20 μM; calcium 100 μM; isolated liver mitochondria 0.125 mg/ml protein; FIG. 5
Method: FIG. 5 illustrates the recording of fluorescence intensity following calcium additions to isolated liver mitochondria in the assay mixture. Controls; only calcium (100 μM) was added. BA; the same amount of calcium (100 μM) was added to mitochondria incubated in the presence of 20 μM Bongrekig acid.
In one preferred embodiment, the assay for pyridine nucleotides measurement may comprise several enzymatic reactions—cyclic and/or coupled—which use oxidized or reduced form of nicotinamide adenine dinucleotides (NAD^+, NADH, respectively) as substrate, thereby providing a detectable final product (FIG. 1). In the first step shown in FIG. 1, alcohol dehydrogenase (ADH) converts ethanol to acetaldehyde in the presence of NAD^+, which is released from mitochondria and reduced to NADH. In the next reaction NADH oxidase (Ox) oxidizes NADH back to NAD^+, and hydrogen peroxide (H2O2) is produced from water in the process. In the last reaction, horseradish peroxidase (HRP) produces a detectable signal in the presence of hydrogen peroxide. […]
Experiments with isolated liver mitochondria were carried out in the same medium as those without; however, no substrate was added, since respiring mitochondria produce superoxide (O2^−). […] Leakage of H2O2 into the medium is expected to give a increase in fluorescence intensity which is not due to the release of pyridine nucleotides from mitochondria. […]

## CO[C@H](C/C=C\C=C\CC/C=C/C[C@H](C)/C=C/C(=C\C(=O)O)CC(=O)O)/C(C)=C\C=C(/C)C(=O)O [BA, Bongkrekic acid]
MPT pore [1]
  calcium-induced swelling of mitochondria (decrease in light scattering at 540 nm): inhibited
MPT pore [2]
  increase in fluorescence following calcium addition (release of pyridine nucleotides): blocked
